In the supplement of paper PMC5908809:

What was measured:
[1] = tested on: SNK-6 (IL-2 2.5 ng/mL); test: percent inhibition of viability; higher = more inhibition; conditions: 72 h
[2] = tested on: KHYG-1 (IL-2 2.5 ng/mL); test: as above; conditions: 72 h
[3] = tested on: normal primary NK cells, pool 3 (3 donors) (IL-2 2.5 ng/mL); test: as above; conditions: 72 h
[4] = tested on: IMC-1 (IL-2 20 ng/mL); test: as above; conditions: 72 h
[5] = tested on: NK-92 (IL-2 2.5 ng/mL); test: as above; conditions: 72 h
[6] = tested on: normal primary NK cells, pool 1 (3 donors) (IL-2 2.5 ng/mL); test: as above; conditions: 72 h
[7] = tested on: NKL (IL-2 2.5 ng/mL); test: as above; conditions: 72 h
[8] = tested on: normal primary NK cells, pool 1 (3 donors), resting (IL-2 0 ng/mL); test: as above; conditions: 72 h
[9] = tested on: KAI3 (IL-2 2.5 ng/mL); test: as above; conditions: 72 h
[10] = tested on: NK-YS (IL-2 2.5 ng/mL); test: as above; conditions: 72 h
[11] = tested on: DERL-7 (IL-2 2.5 ng/mL); test: as above; conditions: 72 h
[12] = tested on: normal primary NK cells, pool 2 (3 donors) (IL-2 2.5 ng/mL); test: as above; conditions: 72 h
[13] = tested on: YT (IL-2 2.5 ng/mL); test: as above; conditions: 72 h
[14] = tested on: normal NK cells expanded with K562-aAPC; test: as above; conditions: 72 h, IL-2 2.5 ng/mL
Protocol: (§1)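 Drug sensitivity and resistance testing on K562-aAPC-expanded normal NK cells: 5 concentrations (10-fold steps over a 10,000-fold range), 72 h at 37 °C, viability by CellTiter-Glo normalised to DMSO and benzethonium chloride controls; DSS from the fitted curve.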

[15] = tested on: normal NK cells expanded with K562-aAPC; test: drug sensitivity score (DSS) (DSS units); higher = more sensitive; extreme values may be limits of the assay; conditions: 72 h; IL-2 2.5 ng/mL
Protocol: as §1

[16] = tested on: SNK-6 (IL-2 2.5 ng/mL); test: as above; conditions: 72 h
[17] = tested on: KHYG-1 (IL-2 2.5 ng/mL); test: as above; conditions: 72 h
[18] = tested on: normal primary NK cells, pool 3 (3 donors) (IL-2 2.5 ng/mL); test: as above; conditions: 72 h
[19] = tested on: IMC-1 (IL-2 20 ng/mL); test: as above; conditions: 72 h
[20] = tested on: NK-92 (IL-2 2.5 ng/mL); test: as above; conditions: 72 h
[21] = tested on: normal primary NK cells, pool 1 (3 donors) (IL-2 2.5 ng/mL); test: as above; conditions: 72 h
[22] = tested on: NKL (IL-2 2.5 ng/mL); test: as above; conditions: 72 h
[23] = tested on: normal primary NK cells, pool 1 (3 donors), resting (IL-2 0 ng/mL); test: as above; conditions: 72 h
[24] = tested on: KAI3 (IL-2 2.5 ng/mL); test: as above; conditions: 72 h
[25] = tested on: NK-YS (IL-2 2.5 ng/mL); test: as above; conditions: 72 h
[26] = tested on: DERL-7 (IL-2 2.5 ng/mL); test: as above; conditions: 72 h
[27] = tested on: normal primary NK cells, pool 2 (3 donors) (IL-2 2.5 ng/mL); test: as above; conditions: 72 h
[28] = tested on: YT (IL-2 2.5 ng/mL); test: as above; conditions: 72 h

C=CC[C@@H]1/C=C(\C)C[C@H](C)C[C@H](OC)[C@H]2O[C@@](O)(C(=O)C(=O)N3CCCC[C@H]3C(=O)O[C@H](/C(C)=C/[C@@H]3CC[C@@H](O)[C@H](OC)C3)[C@H](C)[C@@H](O)CC1=O)[C@H](C)C[C@@H]2OC [Tacrolimus] (max concentration tested 10000 nM)
percent inhibition of viability [%]
Conditions	1 nM	10 nM	100 nM	1000 nM	10000 nM
[1]	6.17	-4.96	-13.1	-0.42	16.6
[2]	-2.54	-4.56	1.9	0.69	13.5
[3]	10.7	1.86	-0.29	-2.25	1.84
[4]	1.61	-1.68	-1.5	-2.11	23.3
[5]	-18.9	-10.1	-13.5	5.35	30.1
[6]	-2.12	0.6	4.89	4.45	43.2
[7]	-8.22	-6.4	-3.18	8.38	3.72
[8]	-2.76	-12.4	9.06	17.2	71.7
[9]	-0.56	6.96	5.19	-3.38	1.06
[10]	1.38	-3.09	1.86	5.94	19.8
[11]	-6.89	-0.55	-1.59	-6.35	23
[12]	6.61	4.19	3.62	3.15	28.9
[13]	0.78	-1.87	1.16	5.77	24.4
[14]	-12.2	-4.97	-9.06	-4.26	-5.39

Conditions	drug sensitivity score
[15]	0
[16]	0.32
[17]	0.17
[18]	0
[19]	0.7
[20]	2.16
[21]	2.93
[22]	0
[23]	6.54
[24]	0
[25]	1.16
[26]	0.55
[27]	1.72
[28]	1.73

COc1cc(Nc2ncc(F)c(Nc3ccc4c(n3)NC(=O)C(C)(C)O4)n2)cc(OC)c1OC [Tamatinib] (max concentration tested 10000 nM)
percent inhibition of viability [%]
Conditions	1 nM	10 nM	100 nM	1000 nM	10000 nM
[1]	2.85	9.06	-0.26	-7.25	83
[2]	1.54	-0.18	6.88	36	99.6
[3]	-10.4	-5.15	-13.3	2.62	54.5
[4]	-4.81	-0.95	-11	-15.5	56.1
[5]	-17.2	-0.02	-13.7	11	90.4
[6]	-10.3	-6.76	7.45	9.38	25.4
[7]	-1.49	-0.26	2.39	34.2	68.3
[8]	-31.4	-30.1	-18.1	-11	-3.1
[9]	4.14	8.73	12.3	52.5	82.4
[10]	-3.68	-3.13	-0.99	12.5	56.2
[11]	-3.21	-4.44	-1.63	29.5	38.5
[12]	-10	-7.66	-17.3	5.93	49.9
[13]	2.46	0.67	2.31	5.93	82.7
[14]	0.12	1.7	1.14	27.4	36.2

Conditions	drug sensitivity score
[15]	5
[16]	4.09
[17]	9.92
[18]	3.27
[19]	2.27
[20]	6.83
[21]	1.62
[22]	7.84
[23]	0
[24]	11.7
[25]	5.03
[26]	5.34
[27]	3.61
[28]	5.49
